The values below come from US9018224B2, “Substituted cyclopropyl compounds useful as GPR119 agonists” (Merck Sharp & Dohme Corp., priority 2011, dated 2015).

The experiment has as its target T1, human GPR119 (Homo sapiens, UniProt Q8TDV5).
T1 sequence (Q8TDV5 1-308 limits assumed): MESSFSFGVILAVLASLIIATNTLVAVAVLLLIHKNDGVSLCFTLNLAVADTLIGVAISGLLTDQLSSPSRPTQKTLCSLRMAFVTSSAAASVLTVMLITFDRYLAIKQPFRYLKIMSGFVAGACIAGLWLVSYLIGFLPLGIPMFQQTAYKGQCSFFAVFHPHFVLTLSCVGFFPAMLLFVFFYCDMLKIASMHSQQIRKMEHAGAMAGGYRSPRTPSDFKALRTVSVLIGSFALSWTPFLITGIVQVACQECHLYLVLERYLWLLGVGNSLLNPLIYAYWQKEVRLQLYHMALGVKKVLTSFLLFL
The experiment can be described thus: Measurement of GPR119 signaling by cAMP (LANCE cAMP kit or HTRF) in HEK293 cells transfected with human GPR119. Format: cell-based. The note with it: agonist cAMP response in HEK293 cells stably transfected with human GPR119; patent does not say which of the two cAMP formats (LANCE or HTRF). The method in brief: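 LANCE TR-FRET cAMP readout; detection with Eu-SA/biotin-cAMP tracer for 3 h, signal converted to cAMP via standard curve, duplicates, 4-parameter fit vs DMSO basal and internal agonist maximum.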
A general note: TR-FRET usually uses a lanthanide donor and a delayed reading to cut background.
As to `O=C(Cc1ccc(OCC[C@@H]2C[C@@H]2C2CCN(c3ncc(Cl)cn3)CC2)cc1)N1CCC1` [Example 1, 1-(azetidin-1-yl)-2-[4-(2-{(1S,2R)-2-[1-(5-chloropyrimidin-2-yl)piperidin-4-yl]cyclopropyl}ethoxy)phenyl]ethanone], a half-maximal response (EC50) required 0.79 nM.

On to `CCOc1cnc(N2CCC([C@H]3C[C@H]3CCOc3cc(F)c(CC(=O)N4CC(F)(F)C4)c(F)c3)CC2)nc1` [Example 231], for which the response was half-maximal at 0.13 nM (EC50).

The molecule `COc1nnc2n1CCN(C(=O)Cc1ccc(OCC[C@@H]3C[C@@H]3C3CCN(c4ncc(Cl)cn4)CC3)cc1F)C2` [Example 137] displayed an EC50 of 3.9 nM.

Turning to `CN(CC1CCOCC1)C(=O)Cc1ccc(OCC[C@@H]2C[C@@H]2C2CCN(c3ncc(Cl)cn3)CC2)cc1F` [Example 157], the EC50 turned out to be 2.4 nM.

Take `COCc1cnc(N2CCC([C@H]3C[C@H]3CCOc3ccc(CC(=O)N4CCOCC4)c(F)c3)CC2)nc1` [Example 46]: the EC50 worked out at 1.8 nM.

In the case of `COCc1cnc(N2CCC([C@H]3C[C@H]3CCOc3ccc(CC(=O)N4CC(C)C4)cc3)CC2)nc1` [Example 14], the response was half-maximal at 5.5 nM (EC50).

Molecule `COC[C@@H]1CCCN1C(=O)Cc1ccc(OCC[C@@H]2C[C@@H]2C2CCN(c3ncc(Cl)cn3)CC2)cc1F` [Example 78] displayed an EC50 of 3.8 nM.

Molecule `COCc1cnc(N2CCC([C@H]3C[C@H]3CCOc3ccc(CC(=O)N(C)C4COC4)c(F)c3)CC2)nc1` [Example 54] had an EC50 of 2.5 nM.

Turning to `C[C@H]1CCCN1C(=O)Cc1ccc(OCC[C@@H]2C[C@@H]2C2CCN(c3ncc(Cl)cn3)CC2)cc1F` [Example 73], the EC50 was 2.7 nM. The EC50 values of the last two molecules are within 1.5-fold of each other.

Molecule `CC(C)CCN(C)C(=O)Cc1ccc(OCC[C@@H]2C[C@@H]2C2CCN(c3ncc(Cl)cn3)CC2)cc1F` [Example 109] yielded an EC50 of 10.3 nM. This EC50 is about 3.8-fold higher than that of the molecule before.

For the molecule `O=C(Cc1ccc(OCC[C@@H]2C[C@@H]2C2CCN(c3ncc(Cl)cn3)CC2)cc1F)N1CCn2nc(C(F)(F)F)nc2C1` [Example 134], the response was half-maximal at 1 nM (EC50). This EC50 is about 10-fold lower than that of the molecule before.

In turn, `CCC(C)CN(C)C(=O)Cc1ccc(OCC[C@@H]2C[C@@H]2C2CCN(c3ncc(Cl)cn3)CC2)cc1F` (some centres unmarked) [Example 160] came in with an EC50 of 3.1 nM.

`CN(C(=O)Cc1ccc(OCC[C@@H]2C[C@@H]2C2CCN(c3ncc(Cl)cn3)CC2)cc1F)C1CCCCC1` [Example 164] had an EC50 of 1.6 nM.

The molecule `Cc1nc2c(o1)CCN(C(=O)Cc1ccc(OCC[C@@H]3C[C@@H]3C3CCN(c4ncc(Cl)cn4)CC3)cc1F)C2` [Example 136] gave an EC50 of 0.73 nM.

For `COCc1cnc(N2CCC([C@H]3C[C@H]3CCOc3ccc(CC(=O)N(C)C)c(F)c3)CC2)nc1` [Example 47], it took 1.3 nM to reach a half-maximal effect (EC50).

`COCc1cnc(N2CCC([C@H]3C[C@H]3CCOc3cc(F)c(CC(=O)N4CCC4)c(F)c3)CC2)nc1` [Example 219, 1-(azetidin-1yl)-2-(2,6-difluoro-4-{2[(1S,2R)-2-{1-[5-(methoxylmethyl)pyrimidin-2yl]piperidin-4-yl}cyclopropyl]ethoxyl}phenyl)ethanone] returned an EC50 of 0.18 nM.

In turn, `COCCN(C)C(=O)Cc1ccc(OCC[C@@H]2C[C@@H]2C2CCN(c3ncc(Cl)cn3)CC2)cc1F` [Example 104] displayed an EC50 of 1.3 nM.

On to `CN(CCO)C(=O)Cc1ccc(OCC[C@@H]2C[C@@H]2C2CCN(c3ncc(Cl)cn3)CC2)cc1F` [Example 170], for which the midpoint of the response, the EC50, lay at 1.7 nM.

In turn, `CC(C)(C)NC(=O)c1nnc2n1CCN(C(=O)Cc1ccc(OCC[C@@H]3C[C@@H]3C3CCN(c4ncc(Cl)cn4)CC3)cc1F)C2` [Example 178] showed an EC50 of 2.8 nM.

On to `CCc1cnc(N2CCC([C@H]3C[C@H]3CCOc3ccc(CC(=O)N4CCC4)c(C)c3)CC2)nc1` [Example 16], for which the response was half-maximal at 1.1 nM (EC50). Compared with the last molecule, the EC50 is about 2.5-fold lower.

In turn, `COCc1cnc(N2CCC([C@H]3C[C@H]3CCOc3ccc(CC(=O)N4CC(O)C4)c(F)c3)CC2)nc1` [Example 42] had an EC50 of 3.4 nM.

For the molecule `COCc1cnc(N2CCC([C@H]3C[C@H]3CCOc3cc(F)c(CC(=O)N(C)C)cc3F)CC2)nc1` [Example 209, 2-{2,5-difluoro-4-[2-((1S,2R)-2-{1-[5-(methoxymethyl)pyrimidin-2-yl]piperidin-4-yl}cyclopropyl)ethoxy]phenyl}-N, N-dimethylacetamide], the EC50 amounted to 1.6 nM.

`Cc1nc2c(o1)CN(C(=O)Cc1ccc(OCC[C@@H]3C[C@@H]3C3CCN(c4ncc(Cl)cn4)CC3)cc1F)CC2` [Example 141] registered a concentration giving a half-maximal response (EC50) of 1.2 nM.

The molecule `CCOc1cnc(N2CCC([C@H]3C[C@H]3CCOc3cc(F)c(CC(=O)N4CC(OC)C4)c(F)c3)CC2)nc1` [Example 236] displayed an EC50 of 0.12 nM.

On to `COCc1cnc(N2CCC([C@H]3C[C@H]3CCOc3ccc(CC(=O)N4CCC4)cc3)CC2)nc1` [Example 9], for which the 50% effective concentration (EC50) is 3.8 nM. This EC50 lies about 32-fold higher than the previous one.

`O=C(Cc1ccc(OCC[C@@H]2C[C@@H]2C2CCN(c3ncc(Cl)cn3)CC2)cc1F)N1CCc2cn[nH]c2C1` [Example 182] returned an EC50 of 2.4 nM.

For the molecule `CCOCc1cnc(N2CCC([C@H]3C[C@H]3CCOc3ccc(CC(=O)N4CC(OC)C4)c(F)c3)CC2)nc1` [Example 203], the EC50 was 1.2 nM.

`COCc1cnc(N2CCC([C@H]3C[C@H]3CCOc3ccc(CC(=O)N4CCC4)c(C#N)c3)CC2)nc1` [Example 25] registered a concentration for a half-maximal effect (EC50) of 1.4 nM. The EC50 values of the last two molecules are within 1.5-fold of each other.

`CC(F)(F)CNC(=O)Cc1ccc(OCC[C@@H]2C[C@@H]2C2CCN(c3ncc(Cl)cn3)CC2)cc1F` [Example 105] returned an EC50 of 1.5 nM.

Regarding `O=C(Cc1ccc(OCC[C@@H]2C[C@@H]2C2CCN(c3ncc(Cl)cn3)CC2)cc1F)NC1CC1` [Example 62], a half-maximal effect (EC50) was put at 1.4 nM.

For `COCc1cnc(N2CCC([C@H]3C[C@H]3CCOc3ccc(CC(=O)N4CCc5nc(C)oc5C4)c(F)c3)CC2)nc1` [Example 58], the EC50 was 1.2 nM.

Take `O=C(Cc1ccc(OCC[C@@H]2C[C@@H]2C2CCN(c3ncc(Cl)cn3)CC2)cc1F)N1CCn2ncnc2C1` [Example 135]: the EC50 came out at 0.54 nM.

In the case of `COCc1cnc(N2CCC([C@H]3C[C@H]3CCOc3ccc(CC(=O)N4CC(OC)C4)c(F)c3)CC2)nc1` [Example 45], the EC50 was 0.81 nM.

Regarding `COCc1cnc(N2CCC([C@H]3C[C@H]3CCOc3ccc(CC(=O)N4CC(C)(O)C4)c(Cl)c3)CC2)nc1` [Example 31], the EC50 turned out to be 1.5 nM.

`CN(CCS(C)(=O)=O)C(=O)Cc1ccc(OCC[C@@H]2C[C@@H]2C2CCN(c3ncc(Cl)cn3)CC2)cc1F` [Example 169] yielded an EC50 of 3.2 nM.

Molecule `CCOc1cnc(N2CCC([C@H]3C[C@H]3CCOc3cc(F)c(CC(=O)N4CCOCC4)c(F)c3)CC2)nc1` [Example 235] had an EC50 of 0.26 nM. This EC50 is about 12-fold lower than that of the molecule before.

As to `COCc1cnc(N2CCC([C@H]3C[C@H]3CCOc3ccc(CC(=O)N4CCCC4(F)F)c(F)c3)CC2)nc1` [Example 52], the concentration for a half-maximal effect (EC50) came out at 0.36 nM.

Consider `O=C(Cc1ccc(OCC[C@@H]2C[C@@H]2C2CCN(c3ncc(Cl)cn3)CC2)cc1F)NCC1CC1` [Example 77, 2-[4-(2-(1S,2R)-2-[1-(5-chloropyrimidin-2-yl)piperidin-4-yl]cyclopropylethoxy)-2-fluorophenyl]-N-(cyclopropylmethyl)acetamide], for which the EC50 amounted to 1.5 nM.

`O=C(Cc1ccc(OCC[C@@H]2C[C@@H]2C2CCN(c3ncc(Cl)cn3)CC2)cc1F)N1CCc2ccncc2C1` [Example 128] gave an EC50 of 2.3 nM.

In the case of `O=C(Cc1ccc(OCC[C@@H]2C[C@@H]2C2CCN(c3ncc(Cl)cn3)CC2)cc1F)N1CCc2cccnc2C1` [Example 130], the EC50 was 1.1 nM.

Turning to `O=C(Cc1ccc(OCC[C@@H]2C[C@@H]2C2CCN(c3ncc(Cl)cn3)CC2)cc1)N1CC(F)C1` [Example 6], the midpoint of the response, the EC50, lay at 0.89 nM.

The molecule `COCc1cnc(N2CCC([C@H]3C[C@H]3CCOc3ccc(CC(=O)N4CCC[C@@H]4C)c(F)c3)CC2)nc1` [Example 49] came in with a half-maximal effective concentration (EC50) of 1.6 nM.

For `COCc1cnc(N2CCC([C@H]3C[C@H]3CCOc3ccc(Cc4nncs4)c(F)c3)CC2)nc1` [Example 248, 2-[4-((1R,2S)-2-{2-[3-fluoro-4-(1,3,4-thiadiazol-2-ylmethyl)phenoxy]ethyl}cyclopropyl)piperidin-1-yl]-5-(methoxymethyl)pyrimidine], the midpoint of the response, the EC50, lay at 4.2 nM.

`O=C(Cc1ccc(OCC[C@@H]2C[C@@H]2C2CCN(c3ncc(Cl)cn3)CC2)cc1F)N1CCC1` [Example 60, 1-(azetidin-1-yl)-2-[4-(2-{(1S,2R)-2-[1-(5-chloropyrimidin-2-yl)piperidin-4-yl]cyclopropyl}ethoxy)-2-fluorophenyl]ethanone] returned an EC50 of 0.19 nM.

For `COCc1cnc(N2CCC([C@H]3C[C@H]3CCOc3cc(F)c(CC(=O)N(C)C4COC4)c(F)c3)CC2)nc1` [Example 226], the EC50 was determined as 0.41 nM. This EC50 lies about 2.2-fold higher than the previous one.

For `O=C(Cc1ccc(OCC[C@@H]2C[C@@H]2C2CCN(c3ncc(Cl)cn3)CC2)c(F)c1)N1CCC1` [Example 250], the response was half-maximal at 2.2 nM (EC50).

Regarding `COc1cc(OCC[C@@H]2C[C@@H]2C2CCN(c3ncc(Cl)cn3)CC2)ccc1CC(=O)N1CCC1` [Example 26, 1-(azetidin-1-yl)-2-[4-(2-{(1S,2R)-2-[1-(5-chloropyrimidin-2-yl)piperidin-4-yl]cyclopropyl}ethoxy)-2-methoxyphenyl]ethanone], the EC50 stood at 7.1 nM.

In general, EC50 refers to the concentration needed to bring the measured effect to its halfway point.
